Results taken from patent US20070037830A1, “2-Adamantyl derivatives as p2X7 receptor antagonists” (ASTRAZENECA AB, priority 2003, published 2007).

| melting point [°C] | SMILES |
| --- | --- |
| 193 to 196 | COc1ccc(C)c(NC(=O)CC2C3CC4CC(C3)CC2C4)c1 (centres unmarked) [Example 1, 2-(2-Adamantyl)-N-(5-methoxy-2-methylphenyl)acetamide] |
| 206 to 208 | O=C(CC1C2CC3CC(C2)CC1C3)Nc1cccc2[nH]ccc12 (centres unmarked) [Example 2, 2-(2-Adamantyl)-N-1H-indol-4-ylacetamide] |
